Experimental findings from publication PMC12314070 (Nature Communications, 2025) are described below.

≈ marks a conversion by molar mass, not a printed value. Positions of bridges follow the written chain, without caps; N, C: chain ends. Non-standard residues stand in square brackets, D forms with d. Residues, ends and D or L forms follow the SMILES beside them. *: point of attachment. X1 = CC[C@H](C)CCCCC(=O)*; Dab = NCC[C@H](N)C(=O)O A value given as a limit tells only on which side of the number the result lay.

The test system of one assay is S. aureus USA 300. Put plainly: MIC assay. Type of assay: cell-based, Staphylococcus aureus. The conditions noted are these: Table 1, Met^R, MDR.
For a further assay, the system named is E. Coli MG1655-mcr-1. Put plainly: Neutropenic thigh infection model. The assay is classed as in vivo, mice. The conditions noted are these: colistin resistant E. coli thigh infection, 20 mg/kg once daily s.c.
The next assay relates to S. aureus BNCC 186335. Put plainly: MIC assay. The assay is classed as cell-based. Particulars: Staphylococcus aureus, BNCC186335, Table 1, Azm^R, Pen^R.
Assay [1] relates to A. baumannii BNCC194496-mcr-1. The experiment in a line: MIC assay. Type of assay: cell-based. The conditions noted are these: Acinetobacter baumannii, BNCC194496MCR1.
A further assay has as its system A. baumannii BNCC 194496. The experiment in a line: MIC assay. The assay is classed as cell-based, Acinetobacter baumannii. The conditions noted are these: Table 1, Cip^R.

In general, MIC refers to the lowest concentration that inhibits growth of the organism. A high value points to a less susceptible organism. On to `COc1cccc(OC)c1C(=O)N[C@@H]1C(=O)N2[C@@H]1SC(C)(C)[C@@H]2C(=O)O` [Methicillin], for which the MIC in the assay on S. aureus USA 300 is greater than 64 mg/L. In the case of `CC[C@H](C)CCCCC(=O)N[C@@H](CCN)C(=O)N[C@H](C(=O)N[C@@H](CCN)C(=O)N[C@H]1CCNC(=O)[C@H]([C@@H](C)O)NC(=O)[C@H](CCN)NC(=O)[C@H](CCN)NC(=O)[C@H](CC(C)C)NC(=O)[C@@H](CC(C)C)NC(=O)[C@H](CCN)NC1=O)[C@@H](C)O` [Colistin] (X1-[Dab]T[Dab][Dab][Dab][dL]L[Dab][Dab]T; lactam 4-C; N-terminus assumed), the “reduction of bacterial burden” value in the assay on E. Coli MG1655-mcr-1 is reported as “no activity”. Consider `CN[C@H](CC(C)C)C(=O)N[C@H]1C(=O)N[C@@H](CC(N)=O)C(=O)N[C@H]2C(=O)N[C@H]3C(=O)N[C@H](C(=O)N[C@H](C(=O)O)c4cc(O)cc(O)c4-c4cc3ccc4O)[C@H](O)c3ccc(c(Cl)c3)Oc3cc2cc(c3O[C@@H]2O[C@H](CO)[C@@H](O)[C@H](O)[C@H]2O[C@H]2C[C@](C)(N)[C@H](O)[C@H](C)O2)Oc2ccc(cc2Cl)[C@H]1O` [Vancomycin], for which the values for the MIC against S. aureus BNCC 186335 and against S. aureus USA 300 were 0.5 mg/L (≈ 0.345 µM) and 1 mg/L (≈ 0.69 µM), respectively. Take `CO/N=C(\C(=O)N[C@@H]1C(=O)N2C(C(=O)O)=CCS[C@H]12)c1csc(N)n1` [Ceftizoxime]: the MIC (in assay [1]; in the assay on A. baumannii BNCC 194496) was 4 mg/L (≈ 10.4 µM) in each case.
